From article PMC8444087 (Toxicology and Applied Pharmacology, 2021)
Bridge positions count the residues as written; N and C are the ends. Ends that are not written are not given here.

What was measured:
α1 I-domain = biological target: T1, α1 I-domain (Homo sapiens, UniProt P56199); experiment: Protein static adhesion assay: GST-tagged α1 I-domain adhesion to GLOGEN peptide coating; assay type: binding; details: TC-I-15 200 μM, Obtustatin 20 μM, 6F1 10 μg/ml
T1 construct: GST-tagged αI-domains were tested in static adhesion assays; made in house
T1 sequence (P56199 161-360 limits assumed): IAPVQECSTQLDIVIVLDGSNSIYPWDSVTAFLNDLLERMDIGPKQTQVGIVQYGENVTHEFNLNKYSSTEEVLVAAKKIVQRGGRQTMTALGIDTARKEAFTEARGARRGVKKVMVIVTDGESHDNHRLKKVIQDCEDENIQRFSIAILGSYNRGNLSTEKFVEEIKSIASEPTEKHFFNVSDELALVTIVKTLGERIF
Description: Immulon 2HB 96-well plates were coated with 100 μl per well of peptides at 10 μg/ml in 0.01 M acetic acid. After 3 × 200 μl/well washes with washing buffer (1 mg/ml BSA in TBS), plates were blocked with 200 μl per well of filtered 3% BSA in TBS for 1 h at RT. αI-domains were added at 10 μg/ml in washing buffer for 1 h at RT with 5 mM MgCl2 and various concentrations of inhibitor as stated. After 3 × 200 μl/well washes with washing buffer, anti-GST detection antibody (GE Healthcare HRP conjugated anti-GST GERPN1236) were added for 1 h. Plates were washed 4× with 200 μl per well of washing buffer and bound protein was quantified using the Pierce™ TMB Substrate Kit. The colorimetric reaction was stopped with an equal volume of 1 M H2SO4 and A450 was read as above. Each condition was performed in triplicate and each experiment was repeated at least three times using different preparations of proteins. […]
Fig. 1 Inhibition of binding of recombinant αI-domains to peptide coatings. Adhesion of A, α1 I-domain to GLOGEN and B, α2 I-domain to GFOGER, was measured using anti-GST-HRP conjugated antibody as described in Materials and methods, and is shown as mean A450 ± SD. […]

α10β1 = biological target: T2, α10β1 (UniProt O75578+P09055); experiment: Cellular static adhesion assay: C2C12 cells expressing α10β1 on collagen peptides; assay type: cell-based, human α-subunit, mouse β-subunit; details: C2C12-α10β1, GFOGER and GLOGEN coatings
T2 construct: expressed in transfected cells; host or cells: C2C12-α10 clone (gift, Xintela AB)
Description: (§1) C2C12s and HT1080s were grown in Lifetech DMEM/10% FBS and 1% penicillin/streptomycin. All cells were maintained under sterile conditions at 37 °C, 5% CO2. Cells were passaged using Trypsin/EDTA at 37 °C for 5 min and DMEM/10% FBS to quench the trypsin. C2C12 cells were transfected as described previously ([Tiger et al., 2001]). The C2C12-α10 clone was kindly made available by Dr. Evy Lundgren-Åkerlund, Xintela AB, Sweden.
(§2) Immulon 2HB 96-well plates were coated with 100 μl per well of peptides at 10 μg/ml in 0.01 M acetic acid overnight at 4 °C. After 3 × 200 μl/well PBS washes, plates were blocked with 200 μl/well filtered 3% BSA in PBS at RT for 1 h. Plates were washed, and 20,000 cells/well were added at room temperature (RT) for 1 h in serum-free media with 5 mM MgCl2 and varying concentrations of inhibitor. Unbound cells were washed away with 3× washes of 200 μl/well PBS. […] Cell number was quantified using 50 μl per well of the Roche cytotoxicity LDH kit. […] A490 was read in a SpectraMax 190 microplate reader (Molecular Devices). […]
(§3) PRISM 8.2.1 or later (GraphPad, San Diego, CA, USA), was used for all statistical tests. […] Inhibition curves were analysed using nonlinear regression comparing each data set with either a horizontal line model (null hypothesis, no inhibition) or three-parameter dose-response curve (inhibition occurs). […]

α11β1 = biological target: T3, α11β1 (UniProt P09055+Q9UKX5); experiment: Cellular static adhesion assay: C2C12 cells expressing α11β1 on collagen peptides; assay type: cell-based, human α-subunit, mouse β-subunit
T3 construct: expressed in transfected cells; host or cells: C2C12 mouse myofibroblasts, stably transfected
Description: as §1, §2, §3

E318A mutation of α2β1 = test system: E318A mutation of α2β1; parameters: method as in Miller et al., 2009; details: ref Miller et al., 2009; cited from earlier work
platelets = test system: platelets; parameters: method as in Miller et al., 2009; details: RGD-containing ligands; ref Miller et al., 2009; cited from earlier work
α2 I-domain = biological target: T4, α2 I-domain (Homo sapiens, UniProt P17301); experiment: Protein static adhesion assay: GST-tagged α2 I-domain adhesion to GFOGER peptide coating; assay type: binding; details: TC-I-15 200 μM, Obtustatin 20 μM
T4 construct: GST-tagged αI-domains were tested in static adhesion assays; made in house
T4 sequence (P17301 188-365 limits assumed): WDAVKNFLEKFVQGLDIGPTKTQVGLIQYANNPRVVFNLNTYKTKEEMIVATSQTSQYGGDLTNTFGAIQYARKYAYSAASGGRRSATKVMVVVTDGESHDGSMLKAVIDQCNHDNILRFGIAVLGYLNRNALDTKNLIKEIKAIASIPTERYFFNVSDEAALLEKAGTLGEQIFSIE
Description: Peptides contain a binding motif (such as GFOGER) flanked on either side by five GPP repeats and a GPC triplet at both the N- and C-termini. […] Peptides were dissolved at 5 mg/ml in 0.01 M acetic acid, heated to 70 °C for 5 min and allowed to cool overnight to enable triple helix folding. […]

α2β1 [1] = biological target: T5, α2β1 (UniProt P09055+P17301); experiment: Cellular static adhesion assay: C2C12 cells expressing α2β1 on collagen peptides; assay type: cell-based, human α-subunit, mouse β-subunit; details: C2C12-α2β1, GFOGER and GLOGEN coatings
T5 construct: expressed in transfected cells; host or cells: C2C12 mouse myofibroblasts, stably transfected
Excerpt: (§4) (For interpretation of the references to colour in this figure legend, the reader is referred to the web version of this article.)

α2β1 [2] = biological target: T6, α2β1 (Homo sapiens, UniProt P05556+P17301); experiment: Cellular static adhesion assay: HT1080 cells (express α2β1) on GFOGER; assay type: cell-based; details: GFOGER coating, dose curve
T6 construct: endogenous in cells; host or cells: HT1080 human fibrosarcoma cells
Excerpt: as §4

Lewis lung carcinoma = test system: Lewis lung carcinoma; parameters: method as in Marcinkiewicz et al., 2003; Brown et al., 2008; details: mouse Lewis lung carcinoma model; ref Marcinkiewicz et al., 2003; Brown et al., 2008; cited from earlier work
melanoma = test system: melanoma; parameters: method as in Marcinkiewicz et al., 2003; Brown et al., 2008; details: mice; ref Marcinkiewicz et al., 2003; Brown et al., 2008; cited from earlier work
[3] = biological target: integrin α1β1 on stably transfected C2C12 cells (human | mouse (endogenous in C2C12)) (UniProt P56199); experiment: static cell adhesion assay; inhibition by obtustatin (dose curve) of the adhesion of integrin-expressing cells to coated GFOGER; 1 h at RT, serum-free medium, 5 mM MgCl2; three-parameter dose-response fit
[4] = biological target: integrin α1β1 on stably transfected C2C12 cells (human | mouse (endogenous in C2C12)) (UniProt P56199); experiment: static cell adhesion assay; inhibition by obtustatin (dose curve) of the adhesion of integrin-expressing cells to coated GLOGEN; 1 h at RT, serum-free medium, 5 mM MgCl2; three-parameter dose-response fit

T2 sequence (O75578 23-1167): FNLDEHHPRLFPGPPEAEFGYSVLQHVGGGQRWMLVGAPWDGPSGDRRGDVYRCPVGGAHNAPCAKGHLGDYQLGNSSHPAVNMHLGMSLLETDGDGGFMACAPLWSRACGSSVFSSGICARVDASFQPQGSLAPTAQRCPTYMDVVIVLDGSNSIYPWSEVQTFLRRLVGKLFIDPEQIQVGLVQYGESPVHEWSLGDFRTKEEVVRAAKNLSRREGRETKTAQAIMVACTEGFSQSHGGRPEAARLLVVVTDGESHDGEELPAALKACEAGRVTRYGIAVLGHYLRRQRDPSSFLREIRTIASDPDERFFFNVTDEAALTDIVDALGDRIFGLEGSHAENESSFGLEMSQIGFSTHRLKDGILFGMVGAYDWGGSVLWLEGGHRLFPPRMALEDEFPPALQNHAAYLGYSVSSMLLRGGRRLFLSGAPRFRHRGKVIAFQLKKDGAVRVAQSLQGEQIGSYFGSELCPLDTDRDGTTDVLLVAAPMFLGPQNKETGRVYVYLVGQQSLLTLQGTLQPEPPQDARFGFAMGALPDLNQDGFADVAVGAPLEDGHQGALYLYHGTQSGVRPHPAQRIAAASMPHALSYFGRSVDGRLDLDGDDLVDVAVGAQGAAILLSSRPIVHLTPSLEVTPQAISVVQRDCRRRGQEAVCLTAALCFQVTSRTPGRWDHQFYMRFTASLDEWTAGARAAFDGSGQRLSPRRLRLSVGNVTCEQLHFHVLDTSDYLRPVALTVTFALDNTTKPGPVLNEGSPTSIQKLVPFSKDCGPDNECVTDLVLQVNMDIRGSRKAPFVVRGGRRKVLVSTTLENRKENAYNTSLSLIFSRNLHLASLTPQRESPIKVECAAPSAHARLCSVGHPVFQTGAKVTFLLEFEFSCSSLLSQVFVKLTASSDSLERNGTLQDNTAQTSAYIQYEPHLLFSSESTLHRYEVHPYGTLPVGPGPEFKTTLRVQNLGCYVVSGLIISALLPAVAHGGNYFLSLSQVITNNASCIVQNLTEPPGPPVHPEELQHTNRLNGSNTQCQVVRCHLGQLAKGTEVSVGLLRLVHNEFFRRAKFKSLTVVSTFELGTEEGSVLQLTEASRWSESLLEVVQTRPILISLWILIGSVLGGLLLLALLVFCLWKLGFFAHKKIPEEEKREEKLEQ
T2 sequence (P09055 21-798): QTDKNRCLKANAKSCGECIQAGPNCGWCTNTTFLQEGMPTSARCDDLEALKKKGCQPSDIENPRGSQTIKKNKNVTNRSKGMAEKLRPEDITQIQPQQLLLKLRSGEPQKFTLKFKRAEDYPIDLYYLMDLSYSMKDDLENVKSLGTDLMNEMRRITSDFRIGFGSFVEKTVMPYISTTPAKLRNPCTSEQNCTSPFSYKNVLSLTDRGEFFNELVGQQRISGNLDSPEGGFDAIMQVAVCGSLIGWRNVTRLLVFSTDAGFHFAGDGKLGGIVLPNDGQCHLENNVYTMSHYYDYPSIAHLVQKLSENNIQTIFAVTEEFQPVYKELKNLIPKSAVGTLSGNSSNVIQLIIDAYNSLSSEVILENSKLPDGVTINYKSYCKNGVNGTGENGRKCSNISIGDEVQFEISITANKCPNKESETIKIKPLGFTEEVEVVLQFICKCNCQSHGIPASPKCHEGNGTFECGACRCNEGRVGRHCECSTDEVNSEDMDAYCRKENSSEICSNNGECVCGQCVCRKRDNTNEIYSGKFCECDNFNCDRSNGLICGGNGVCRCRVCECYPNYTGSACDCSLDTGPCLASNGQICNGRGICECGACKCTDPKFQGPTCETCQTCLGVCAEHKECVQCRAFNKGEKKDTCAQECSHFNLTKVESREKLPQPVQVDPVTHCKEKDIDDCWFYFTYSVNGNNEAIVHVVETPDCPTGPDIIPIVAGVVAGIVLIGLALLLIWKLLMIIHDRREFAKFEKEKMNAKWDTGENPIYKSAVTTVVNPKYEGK
T3 sequence (Q9UKX5 23-1188): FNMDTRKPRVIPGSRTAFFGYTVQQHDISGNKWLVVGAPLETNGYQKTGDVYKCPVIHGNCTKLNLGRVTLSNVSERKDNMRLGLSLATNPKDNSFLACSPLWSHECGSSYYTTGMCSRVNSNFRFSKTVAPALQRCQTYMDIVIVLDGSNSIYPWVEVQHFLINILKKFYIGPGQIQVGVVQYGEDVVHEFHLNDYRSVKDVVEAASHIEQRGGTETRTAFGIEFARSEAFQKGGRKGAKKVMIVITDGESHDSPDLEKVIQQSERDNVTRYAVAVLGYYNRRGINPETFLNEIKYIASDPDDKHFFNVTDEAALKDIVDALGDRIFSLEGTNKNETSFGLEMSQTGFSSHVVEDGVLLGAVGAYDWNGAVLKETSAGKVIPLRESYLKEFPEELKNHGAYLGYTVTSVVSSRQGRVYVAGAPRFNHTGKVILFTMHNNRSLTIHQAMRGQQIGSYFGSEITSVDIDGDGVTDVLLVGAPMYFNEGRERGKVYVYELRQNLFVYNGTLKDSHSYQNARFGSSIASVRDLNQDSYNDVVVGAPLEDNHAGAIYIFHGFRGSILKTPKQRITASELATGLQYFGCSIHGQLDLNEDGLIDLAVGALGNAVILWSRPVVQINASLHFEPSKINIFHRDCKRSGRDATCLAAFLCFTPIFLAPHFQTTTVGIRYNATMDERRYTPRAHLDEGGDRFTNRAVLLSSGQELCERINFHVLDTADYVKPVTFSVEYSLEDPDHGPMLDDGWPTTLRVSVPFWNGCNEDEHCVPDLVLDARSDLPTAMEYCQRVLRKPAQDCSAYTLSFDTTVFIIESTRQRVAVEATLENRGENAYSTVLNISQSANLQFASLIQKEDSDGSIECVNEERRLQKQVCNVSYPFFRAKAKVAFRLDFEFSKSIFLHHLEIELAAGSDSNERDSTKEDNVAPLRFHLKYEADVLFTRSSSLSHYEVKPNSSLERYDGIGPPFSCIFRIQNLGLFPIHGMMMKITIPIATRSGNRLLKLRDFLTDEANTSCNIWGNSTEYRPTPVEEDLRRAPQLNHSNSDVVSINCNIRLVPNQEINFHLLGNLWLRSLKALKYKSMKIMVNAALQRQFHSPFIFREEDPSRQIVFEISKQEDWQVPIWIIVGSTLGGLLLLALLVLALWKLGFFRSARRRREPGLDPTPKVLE
T3 sequence (P09055 21-798): as the sequence (P09055 21-798) above
Chain of integrin α1β1 on stably transfected C2C12 cells (human | mouse (endogenous in C2C12)) (P56199 29-1179, chain 1 of 2): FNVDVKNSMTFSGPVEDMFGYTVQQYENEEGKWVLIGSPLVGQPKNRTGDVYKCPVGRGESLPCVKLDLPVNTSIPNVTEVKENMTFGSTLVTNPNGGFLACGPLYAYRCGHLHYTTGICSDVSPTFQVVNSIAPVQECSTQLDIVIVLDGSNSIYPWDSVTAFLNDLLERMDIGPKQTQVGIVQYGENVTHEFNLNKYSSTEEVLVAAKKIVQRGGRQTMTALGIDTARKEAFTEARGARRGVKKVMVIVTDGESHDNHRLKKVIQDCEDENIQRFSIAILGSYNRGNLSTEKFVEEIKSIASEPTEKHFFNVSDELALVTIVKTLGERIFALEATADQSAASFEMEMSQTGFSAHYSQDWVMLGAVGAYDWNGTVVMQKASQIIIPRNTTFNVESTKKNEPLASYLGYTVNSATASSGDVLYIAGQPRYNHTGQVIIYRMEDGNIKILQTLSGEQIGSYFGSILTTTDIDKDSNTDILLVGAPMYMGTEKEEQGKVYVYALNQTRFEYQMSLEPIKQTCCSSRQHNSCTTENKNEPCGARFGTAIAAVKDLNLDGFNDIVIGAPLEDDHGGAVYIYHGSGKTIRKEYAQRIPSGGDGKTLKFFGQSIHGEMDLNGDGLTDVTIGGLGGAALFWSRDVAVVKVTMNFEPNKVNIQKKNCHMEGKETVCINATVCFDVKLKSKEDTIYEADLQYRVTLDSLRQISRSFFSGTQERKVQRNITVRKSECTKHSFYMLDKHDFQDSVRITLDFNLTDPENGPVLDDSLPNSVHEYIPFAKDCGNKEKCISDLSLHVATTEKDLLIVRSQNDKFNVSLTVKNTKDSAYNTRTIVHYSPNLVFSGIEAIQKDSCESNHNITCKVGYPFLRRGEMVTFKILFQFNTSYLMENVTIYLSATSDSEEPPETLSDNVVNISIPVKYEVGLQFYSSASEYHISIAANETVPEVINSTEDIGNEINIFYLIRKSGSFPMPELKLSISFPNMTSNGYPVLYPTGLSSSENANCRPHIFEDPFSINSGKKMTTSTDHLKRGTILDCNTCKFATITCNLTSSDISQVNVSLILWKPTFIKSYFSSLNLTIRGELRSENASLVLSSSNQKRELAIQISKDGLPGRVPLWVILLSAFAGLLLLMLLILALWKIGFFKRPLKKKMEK
Chain of integrin α1β1 on stably transfected C2C12 cells (human | mouse (endogenous in C2C12)) (P09055 21-798, chain 2 of 2, further chain): as the sequence (P09055 21-798) above

| Compound | Effect on α1 I-domain adhesion to GLOGEN (α1 I-domain) | Inhibition of α10β1-expressing C2C12 cell adhesion (dose curve) (α10β1) | IC50 (α11β1; C2C12-α11β1, GLOGEN coating, 5 mM MgCl2, 1 h RT, read-out: IC50, inhibition of α11β1-expressing C2C12 cell adhesion to GLOGEN) [nM] | Effect on constitutively active E318A mutation of α2β1 (E318A mutation of α2β1) | Effect on adhesion of platelets to fibronectin and fibrinogen (platelets) | Effect on α2 I-domain adhesion to GFOGER (α2 I-domain) | Inhibition of α2β1-expressing C2C12 cell adhesion (dose curve) (α2β1 [1]) | Inhibition of α11β1-expressing C2C12 cell adhesion (dose curve) (α11β1; C2C12-α11β1, GFOGER and GLOGEN coatings) | Effect on HT1080 adhesion to GFOGER (α2β1 [2]) | Reduction of tumour development (Lewis lung carcinoma) [%] | Effect on melanoma growth (melanoma) | IC50 [3] [nM] | IC50 [4] [nM] |
| --- | --- | --- | --- | --- | --- | --- | --- | --- | --- | --- | --- | --- | --- |
| CC1(C)SCN(S(=O)(=O)c2ccccc2)[C@@H]1C(=O)N[C@@H](CNC(=O)NCc1ccccc1)C(=O)O [TC-I-15] | unaffected | no inhibition was seen | 177000 | no effect | no effect |  |  |  |  |  |  |  |  |
| CTTGPCCRQCKLKPAGTTCWKTSLTSHYCTGKSCDCPLYPG (disulfide 1-10, 6-29, 7-34, 19-36 (inferred)) [obtustatin] | unaffected | no inhibition was observed |  |  |  | unaffected | no inhibition was observed | no inhibition was observed | no effect | 50 | blocked melanoma growth |  |  |
| obtustatin (peptide) |  |  |  |  |  |  |  |  |  |  |  | 450 | 960 |
